Marks after values point to notes of the source that are not given here.
Tests used:
fusarium graminearium = assay: Test I: wheat head scab, preventive spray on wheat seedlings; settings: 200 ppm
Procedure: (the causal agent of wheat head scab) and incubated in a saturated atmosphere at 20° C. for 72 h, and then moved to a growth chamber at 22° C. for 5 days, after which disease ratings were made.

Septoria nodorum = assay: Test H: wheat glum blotch, preventive spray on wheat seedlings
Procedure: (the causal agent of wheat glum blotch) and incubated in a saturated atmosphere at 20° C. for 48 h, and then moved to a growth chamber at 22° C. for 5 days, after which disease ratings were made.

Pythium aphanidermatum = assay: Test A: bluegrass pythium blight, preventive spray on bluegrass seedlings; settings: 200 ppm
Septoria tritici = assay: Test J: wheat leaf blotch, preventive spray on wheat seedlings; type: in vivo
Source text: A dash (-) indicates no test results.

Plasmopara viticola = assay: Test D: grape downy mildew, spray after inoculation of grape seedlings; type: in vivo; settings: 200 ppm
Source text: Upon removal, disease ratings were made. […] A dash (-) indicates no test results.

[1] = system: Erysiphe graminis f. sp. tritici; assay: Test L: wheat powdery mildew, preventive spray on wheat seedlings
Botrytis cinerea = assay: Test E: tomato botrytis, preventive spray on tomato seedlings
Phytophthora infestans = assay: whole plant or invertebrate; type: in vivo; settings: 200 ppm
[2] = system: Colletotrichum orbiculare; assay: Test B: cucumber Colletotrichum anthracnose, preventive spray on cucumber seedlings
[3] = system: Puccinia recondita f. sp. tritici; assay: Test K: wheat leaf rust, preventive spray on wheat seedlings
Rhizoctonia oryzae = assay: Test G: turf brown patch, preventive spray on creeping bent grass seedlings
Procedure: (the causal agent of turf brown patch) and incubated in a saturated atmosphere at 27° C. for 24 h, and then moved to a growth chamber at 27° C. for 5 days, after which disease ratings were made.

SMILES | Test I disease control rating (fusarium graminearium) [%] | Test H disease control rating (Septoria nodorum; 200 ppm) [%] | Test A disease control rating (Pythium aphanidermatum) [%] | Test J disease control rating (Septoria tritici; 200 ppm) [%] | Test D disease control rating (Plasmopara viticola) [%] | Test L disease control rating ([1]; 200 ppm) [%] | Test E disease control rating (Botrytis cinerea; 200 ppm) [%] | Test F disease control rating (Phytophthora infestans) [%] | Test B disease control rating ([2]; 200 ppm) [%] | Test K disease control rating ([3]; 200 ppm) [%] | Test G disease control rating (Rhizoctonia oryzae; 200 ppm) [%] | Test H disease control rating (Septoria nodorum; 40 ppm (*)) | Test J disease control rating (Septoria tritici; 40 ppm (*)) | Test L disease control rating ([1]; 40 ppm (*)) | Test E disease control rating (Botrytis cinerea; 40 ppm (*)) | Test B disease control rating ([2]; 40 ppm (*)) | Test K disease control rating ([3]; 40 ppm (*)) | Test G disease control rating (Rhizoctonia oryzae; 40 ppm (*))
CC(C)Cn1c(-c2c(F)cccc2F)c(Cl)nc(NN=C2CCCC2)c1=O [compound 73] | 0 | 0 | 0 | 59 | 0 | 0 | 97 | 0 | 0 | 80 | 0 |  |  |  |  |  |  | 
Cc1ccc(-c2c(Cl)nc(-n3cncn3)c(=O)n2CC(C)C)c(C)c1 [compound 79] | 0 | 100 | 0 | 100 | 0 | 92 | 100 | 0 | 83 | 97 | 46 |  |  |  |  |  |  | 
CC(C)Cn1c(-c2cc(Br)c3c(c2)OCO3)c(Cl)nc(-n2cccn2)c1=O [compound 89] | 0 | 0 | 0 | 0 | 0 | 0 | 0 | 0 | 0 | 0 | 0 |  |  |  |  |  |  | 
CC(C)Cn1c(-c2c(F)cccc2F)c(Cl)nc(-c2cnn(C)c2)c1=O [compound 100] | 0 | 0 | 0 | 3 | 0 | 13 | 0 | 0 | 0 | 26 | 0 |  |  |  |  |  |  | 
CC(C)Cn1c(-c2c(F)cccc2F)c(Cl)nc(-c2nccn2C)c1=O [compound 102] | 0 | 0 | 0 | 0 | 0 | 0 | 0 | 0 | 0 | 0 | 0 |  |  |  |  |  |  | 
CC(C)Cn1c(-c2c(F)cccc2F)c(Cl)nc(-c2ccnn2C)c1=O [compound 103] | 0 | 0 | 0 | 3 | 0 | 0 | 0 | 0 | 0 | 0 | 0 |  |  |  |  |  |  | 
O=c1c(-n2cncn2)nc(Cl)c(-c2c(F)cccc2F)n1Cc1ccccc1 [compound 105] | 0 | 64 | 0 | 98 | 0 | 0 | 100 | 0 | 0 | 100 | 24 |  |  |  |  |  |  | 
N#Cc1nc(Cl)c(-c2c(F)cccc2F)n(Cc2ccccc2)c1=O [compound 106] | 0 | 0 | 0 | 12 | 0 | 94 | 0 | 0 | 0 | 91 | 0 |  |  |  |  |  |  | 
CC(c1ccccc1)n1c(-c2c(F)cccc2F)c(Cl)nc(-n2cccn2)c1=O (stereo not shown) [compound 107] | 69 | 0 | 0 | 93 | 0 | 0 | 0 | 0 | 0 | 98 | 0 |  |  |  |  |  |  | 
CC(c1ccccc1)n1c(-c2c(F)cccc2F)c(Cl)nc(-n2cncn2)c1=O (stereo not shown) [compound 108] | 0 | 0 | 0 | 11 | 0 | 0 | 56 | 0 | 0 | 0 | 0 |  |  |  |  |  |  | 
CC(c1ccccc1)n1c(-c2c(F)cccc2F)c(Cl)nc(C#N)c1=O (stereo not shown) [compound 109] | 0 | 0 | 0 | 0 | 0 | 0 | 0 | 0 | 0 | 0 | 0 |  |  |  |  |  |  | 
CC(C)Cn1c(-c2c(Cl)ccc(Cl)c2Cl)c(Cl)nc(-n2cccn2)c1=O [compound 121] | 0 |  | 0 |  | 0 |  |  | 0 |  |  |  | 99* % | 100* % | 0* % | 100* % | 91* % | 99* % | 44* %
CCC(C)Cn1c(-c2c(F)cccc2F)c(Cl)nc(NN(C)C)c1=O (stereo not shown) [compound 134] | 89 |  | 0 |  | 0 |  |  | 0 |  |  |  | 0* % | 59* % | 0* % | 0* % | 0* % | 28* % | 0* %
CCC(C)Cn1c(-c2c(F)cccc2F)c(Cl)nc(NN2CCOCC2)c1=O (stereo not shown) [compound 135] | 0 |  | 0 |  | 0 |  |  | 0 |  |  |  | 0* % | 0* % | 0* % | 0* % | 0* % | 0* % | 0* %

— US20080194585A1, “Fungicidal Pyrazine Derivatives” (priority 2005, published 2008)
